# Reference: patent US20240158797A1, “ANTISENSE OLIGONUCLEOTIDES FOR THEIR USE IN AN ANTI-CANCER TREATMENT” (UNIVERSITÉ GRENOBLE ALPES, priority 2021, published 2024)
# Key:
# [1] = test system: 6-O-methylguanine DNA methyltransferase (MGMT) protein; test: Test of the expression level of the MGMT protein (western blot) in T98G cells; assay type: cell-based; conditions: for levels of MGMT protein: T98G glioma cells, 100 μM ASO in lipofectamine 48 h, western blot vs ASO Scr, at least four repetitions
# Protocol: (§1) The U87, T98G and U251 glioma cell lines are cultured in DMEM medium («Dulbecco/Vogt modified Eagle's minimal essential medium» supplemented with 10% fetal calf serum and 1% penicillin and streptomycin.
# (§2) When the cultures are at 60% confluence, they are transfected with 100 μM of antisense oligonucleotide (ASO) RG6042 (of sequence SEQ ID NO: 1), or PH1 (SEQ ID NO: 2) or PH2 (SEQ ID NO: 3) or PH3 (SEQ ID NO: 4) or Scr in lipofectamine for 48 h. The ASO Scr (for «scramble» is an ASO serving as a control whose sequence SEQ ID NO: 5 is <A*CATG*>A*C*C*G*C*A*C*T*C*A*<CTAT*A> where * is a phosphorothioate bond and the bases between the signs < and > are 2′-O-methoxyethyl RNA.
# Cells transfected with ASO RG6042, ASO Scr, or treated with lipofectamine alone (for control), are harvested for the test of the expression level of the MGMT protein.
# The protocol is the same as for the previously cited test of the expression level of the HTT protein with the only change being the use of anti-MGMT antibodies (#2739, from the Cell signaling Technology® brand) in incubation to reveal the MGMT protein. The vinculin is also used here as a load control.
# (§3) FIG. 4 illustrates in A the result of the western blot produced from cells of the T98G cell line having been transfected with ASO RG6042, with ASO Scr or treated with lipofectamine alone (Ctrl) and, in B, the quantification of MGMT protein levels obtained by western blot after at least 4 repetitions of the experiment presented in A.
# (§4) T98G cells transfected with ASO RG6042, or ASO PH1, or ASO PH2 or ASO PH3, or ASO Scr, are harvested for testing the expression level of HTT proteins and MGMT.
# (§5) The protocol is the same as for the previously cited tests for the expression level of the HTT protein and the expression level of the MGMT protein. The vinculin is also used here as a load control.
# (§6) FIG. 6 illustrates the quantification of the protein levels of HTT in A and of MGMT in B, obtained by western blot after at least four repetitions of the experiment presented in FIG. 5. The statistics were carried out using the Kruskal-wallis test followed by Dunn's multiple comparison test, error bars, SEM, *p<0.05, **p<0.001.
# [2] = test system: huntingtin (HTT) protein; test: Test of the expression level of the HTT protein in T98G cells transfected with ASO RG6042, PH1, PH2, PH3 or Scr; assay type: cell-based; conditions: T98G glioma cells, 100 μM ASO in lipofectamine 48 h; western blot vs ASO Scr, at least four repetitions
# Protocol: as §1, §2
# The cells are rinsed with phosphate-buffered saline (PBS) and then lysed in RIPA-type lysis buffer supplemented with protease and phosphatase inhibitors. The proteins solubilized in the buffer are harvested after centrifugation, denatured in Laemmli loading buffer and deposited on polyacrylamide gel. After migration, the proteins are transferred onto a polyvinylidine difluoride (PVDF) membrane. […] The vinculin is used as a load control.
# as §4, §5
# FIG. 5 illustrates the result of the western blot produced from cells of the T98G cell line having been transfected with ASO RG6042, with ASO PH1, with ASO PH2, with ASO PH3, or with ASO Scr.
# as §6
# [3] = test system: huntingtin protein (HTT); test: Huntingtin (HTT) protein expression level test (western blot) in transfected glioma cells; assay type: cell-based; conditions: glioma cells (U251, U87, T98G) transfected with 100 μM ASO in lipofectamine for 48 h; western blot vs ASO Scr / lipofectamine alone
# Protocol: as §1
# as §2, with “RNA. […]” for “RNA.”
# FIG. 1 illustrates in A the results of the western blot carried out from cells of the U251 cell line having been transfected with ASO RG6042, with the ASO Scr or simply treated with lipofectamine alone (Ctrl for control), and, in B, the quantification of HTT protein levels obtained by western blot after 4 repetitions of the experiment presented in A.
# as §3, with “FIG. 2” for “FIG. 4”, “the U87” for “the T98G”, “alone (Ctrl),” for “alone (Ctrl)”, “of HTT” for “of MGMT”, “least 3” for “least 4”, “A. […]” for “A.”
# [4] = test system: U87 cell line; test: Temozolomide (TMZ) sensitivity test (MTT), U87 line; assay type: cell-based; conditions: U87 cultures, RG6042 vs control
# Protocol: as §1
# as §2, with “RNA. […]” for “RNA.”
# (§7) The yellow probe of MTT, 3-(4,5-Dimethyl-2-thiazolyl)-2,5-diphenyl-2H-tetrazolium bromide, is then added at a working concentration of 0.5 mg·ml^−1 to each well. […] The optical density (OD) of the contents of each well is then analyzed with a spectrophotometer at wavelengths comprised between 490 nm and 570 nm. […]
# (§8) FIG. 9 illustrates in A a curve showing the percentage of living cells of the U87 line transfected with ASO RG6042 or treated with lipofectamine alone (Ctrl) as a function of the received dose of TMZ and, in B, the averages TMZ concentrations measured at the LD50 in 4 different MTT tests for cells of the U251 line transfected with ASO RG6042 or treated with lipofectamine alone (Ctrl).
# [5] = test system: U251 cell line; test: Temozolomide (TMZ) sensitivity test (MTT), U251 line; assay type: cell-based; conditions: U251 cultures, RG6042 vs control
# Protocol: as §1
# as §2, with “RNA. […]” for “RNA.”
# as §7
# as §8, with “8” for “9”, “live” for “living”, “U251” for “U87”, “average” for “averages”
# [6] = test system: T98G cell line; test: Temozolomide (TMZ) sensitivity test (MTT), T98G line; assay type: cell-based; conditions: T98G cultures, RG6042 vs control
# Protocol: as §1
# as §2, with “RNA. […]” for “RNA.”
# as §7
# as §8, with “FIG. 10” for “FIG. 9”, “the T98G” for “the U87”, “the average” for “the averages”, “in 6” for “in 4”, “the T98G” for “the U251”
# [7] = test system: U251 cell line; test: Sensitivity test to the alkylating agent Lomustine (MTT), U251 line; assay type: cell-based
# Protocol: as §1, §2
# (§9) The cells transfected with ASO RG6042 or ASO Scr are harvested for the sensitivity test to the alkylating agent Lomustine.
# (§10) The Lomustine was prepared in the form of a stock solution of 50 mg/ml (214 mM) in pure ethanol. The solution was filtered to sterilize it (0.2 μm pore filter) and frozen at −20° C. until further use. […]
# FIG. 11 illustrates in A a curve showing the percentage of living cells of the U251 line transfected with ASO RG6042 or Scr as a function of the dose of Lomustine received and, in B, the mean of the concentrations of Lomustine measured at the LD50 in 4 different MTT assays for U251 cell line transfected with ASO RG6042 or Scr.
# [8] = test system: T98G cell line; test: Sensitivity test to the alkylating agent Lomustine (MTT), T98G line; assay type: cell-based
# Protocol: as §1, §2, §9, §10
# FIG. 12 illustrates in A a curve showing the percentage of live cells of the T98G line transfected with ASO RG6042 or Scr as a function of the received dose of Lomustine and, in B, the mean of the concentrations of Lomustine measured at the LD50 in 4 different MTT assays for T98G cell line transfected with ASO RG6042 or Scr.
# [9] = test system: HTT; conditions: patients with Huntington's disease, after 4 intrathecal injections (Tabrizi et al. 2019); cited from earlier work
Substance,levels of MGMT protein [1],levels of HTT protein [2],HTT protein levels [3],"MGMT levels ([1]; T98G cells transfected with 100 μM ASO in lipofectamine for 48 h, western blot vs ASO Scr / lipofectamine alone)",reduction in the LD50 at the TMZ [4],reduction in the LD50 at the TMZ [5],reduction in the LD50 at the TMZ [6],sensitization to the alkylating agent Lomustine ([7]; U251 cells),"reduction in the LD50 of Lomustine ([7]; U251 cultures, RG6042 vs Scr)",sensitization to the alkylating agent Lomustine ([8]; T98G cells),"reduction in the LD50 of Lomustine ([8]; T98G cultures, RG6042 vs Scr)",HTT levels in the cerebrospinal fluid [9]
"ASO PH1: antisense oligonucleotide of sequence SEQ ID NO: 2 reducing HTT and MGMT levels (antisense TCTCTATTGCACATTCCAAG; listed as DNA, chemistry not given here)",significantly reduce,significantly reduce,,,,,,,,,,
"ASO PH2: antisense oligonucleotide of sequence SEQ ID NO: 3 reducing HTT and MGMT levels (antisense CTCGACTAAAGCAGGATTTC; listed as DNA, chemistry not given here)",significantly reduce,significantly reduce,,,,,,,,,,
"ASO PH3: antisense oligonucleotide of sequence SEQ ID NO: 4 reducing HTT and MGMT levels (antisense CCTGCATCAGCTTTATTTGT; listed as DNA, chemistry not given here)",significantly reduce,significantly reduce,,,,,,,,,,
"ASO RG6042: antisense oligonucleotide of sequence SEQ ID NO: 1 targeting huntingtin mRNA; sequence from literature, clinical trials in Huntington's disease (antisense CTCAGTAACATTGACACCAC; listed as DNA, chemistry not given here)",significantly reduce,significantly reduce,significantly reduces,significantly reduces,32%,40%,45%,sensitizes,41%,sensitizes,47%,decreased
